In US12246022B2, “Compositions and methods for treating, preventing or reversing age associated inflammation and disorders” (BROWN UNIVERSITY, priority 2019, dated 2025):
Like-named read-outs stand apart in the source and are kept apart here.

Key:
Type in all cases: cell-based
[1] = test system: human LINE-1; experiment: Human LINE-1 retrotransposition assay (dual luciferase pYX017 reporter, HeLa cells, Table 11)
Protocol: Assays were performed as described in Xie et al., 2011^151 with several modifications. The reporter assay was performed in 96 well white Optical bottom plates. 6000 HeLa cells were seeded in each well 24 hours prior transfection and compound treatment. All compounds were resuspended in DMSO. Stock solution concentrations varied from 50 mM to 1.25 mM depending of the solubility of the compound. Serial dilutions (1:3) were prepared in DMSO. Ten different concentrations of each compound were tested in triplicate. Medium containing different concentrations of the compounds were prepared by adding 2 μL of the compound dilution to 1 mL of the culture medium. The final concentration of DMSO in the medium was 0.2%. FuGENE® HD transfection reagent (Promega) was used to transfect the plasmid pYX016 into the cells. The transfection mix was prepared in OpiMEM (Thermo Fisher) using a reagent to DNA ratio of 3.5:1 according to manufacturer's instructions. Culture medium was removed from the cells and discarded. The transfection mix (5 μL) was mixed with the compound containing medium (100 μL/well) and this was added onto the cells of each well. Cells were incubated for 48H at 37° C./5% CO2. Luciferase reporter activity was quantified with the Dual-Luciferase® Reporter Assay System (Promega) according to manufacturer's instructions for multiwell plates with the following modification: Cells were lysed directly on the multiwell plate with 30 μL of the passive lysis buffer (PLB) for 20 min at room temperature, with gentle shaking to ensure complete cell lysis (instead of 20 μL of PLB for 15 min). Firefly and Renilla luciferase signals were measured using a SpectraMax i3x Multi-Mode Microplate Reader. […] Relative L1 activity was calculated as Firefly/Renilla *10,000. […] The experiment was performed twice, independently. […] Because the human construct yields a lower signal, compounds were incubated with cells for 72 hours instead of 48 hours, and cells were seeded at a density of 2000/well instead of 6000/well. In addition, the transfection reagent to DNA ratio was 2:1 instead of 3.5:1.

[2] = test system: mouse LINE-1; experiment: Mouse LINE-1 retrotransposition assay (dual luciferase pYX016 reporter, HeLa cells)
Protocol: Elvucitabine was obtained by custom synthesis. […] HeLa cervical cancer cells were cultivated at 37° C. in a humidified 5% CO2 incubator in Dulbecco's Modified Eagle's Medium (DMEM)-high glucose, with 4500 mg/L glucose, L-glutamine, sodium pyruvate and sodium bicarbonate (Sigma), supplemented with 10% of heat inactivated fetal bovine serum (Thermo Fisher). Assays were performed as described in Xie et al., 2011^151 with several modifications. The reporter assay was performed in 96 well white Optical bottom plates. 6000 HeLa cells were seeded in each well 24 hours prior transfection and compound treatment. All compounds were resuspended in DMSO. Stock solution concentrations varied from 50 mM to 1.25 mM depending of the solubility of the compound. Serial dilutions (1:3) were prepared in DMSO. Ten different concentrations of each compound were tested in triplicate. Medium containing different concentrations of the compounds were prepared by adding 2 μL of the compound dilution to 1 mL of the culture medium. The final concentration of DMSO in the medium was 0.2%. FuGENE® HD transfection reagent (Promega) was used to transfect the plasmid pYX016 into the cells. The transfection mix was prepared in OpiMEM (Thermo Fisher) using a reagent to DNA ratio of 3.5:1 according to manufacturer's instructions. Culture medium was removed from the cells and discarded. The transfection mix (5 μL) was mixed with the compound containing medium (100 μL/well) and this was added onto the cells of each well. Cells were incubated for 48H at 37° C./5% CO2. Luciferase reporter activity was quantified with the Dual-Luciferase® Reporter Assay System (Promega) according to manufacturer's instructions for multiwell plates with the following modification: Cells were lysed directly on the multiwell plate with 30 μL of the passive lysis buffer (PLB) for 20 min at room temperature, with gentle shaking to ensure complete cell lysis (instead of 20 μL of PLB for 15 min). Firefly and Renilla luciferase signals were measured using a SpectraMax i3x Multi-Mode Microplate Reader. […] Relative L1 activity was calculated as Firefly/Renilla *10,000. […] The experiment was performed twice, independently.

[3] = test system: HeLa cells; experiment: Cell viability assay (CellTiter-Glo); conditions: doses up to 2 μM
Protocol: As described above, the toxicity of RTIs could impair their ability to halt or block the harmful effects of senescent cells and their ability to prevent or reverse age-related inflammation and disorders.
HeLa cells were treated with the different concentrations of the eight RTI compounds for 48 hours. Cell viability was measured with CellTiter-Glo® luminescent cell viability assay (Promega®) and presented as percentage of cell viability versus untreated cells. Staurosporine, known to induce cell death, was used as a control.

SMILES: Nc1nc(=O)n([C@@H]2C=C[C@H](CO)O2)cc1F [Elvucitabine]
- IC50 ([1]; pYX017, 72 H post-transfection, read-out: Human L1 activity inhibition IC50, Exp. 1): 94 nM
- IC50 ([1]; read-out: human L1 inhibition IC50): ~100 nM
- IC50 ([2]; pYX016, 48 H post-transfection, read-out: Mouse L1 activity inhibition IC50, Exp. 1): 116 nM
- IC50 ([2]; pYX016, 48 H post-transfection, read-out: Mouse L1 activity inhibition IC50, Exp. 2): 106 nM
- IC50 ([2]; pYX016, 48 H, n = 2, read-out: Mouse L1 activity inhibition IC50, Average): 111 nM
- IC50 ([2]; read-out: mouse L1 inhibition IC50): ~100 nM
- toxicity in the cell viability assay [3]: without inducing toxicity
